Structures can show the parent of a compound that is named as a salt.
Assays:
[1] = tested on: BMDMs; assay: Seahorse XF Mito Stress Test (respirometry, OCR); assay type: cell-based, mouse; conditions: BMDMs pre-treated 3 h, LPS 4 h
Description: All compounds used DMSO as a vehicle except for 4-hydroxy tamoxifen (EtOH), NAC (PBS), and AOAA for tracing experiments (Media). LPS was used at a concentration of 100 ng/ml for indicated timepoints (2, 3, 4, 6, 8, 24, 48 h). FHIN1 (10 or 20 μM), MMF (50 or 100 μM), DMF (25 μM), AOAA (5 mM), oligomycin (10 μM), CCCP (50 μM) NAC (1 mM), and IMT1 (10 μM) pre-treatments were performed for 3 h prior the addition of LPS. Cells were treated with valinomycin (10 nM) 15 mins before LPS stimulation. Anti-CD210 or IgG control (10 μg/ml) antibodies were added to cells 1 h prior to LPS stimulation. Recombinant mouse IL-10 protein (100 ng/ml) was added to cells at the same time as LPS. Cells were treated with IFN-B1 (220 ng/ml) for 3 h. Cells were treated with C-178 (1 μM) 1 h prior to LPS stimulation or transfection with 2′3′-cGAMP (1.5 μg/ml) for 4 hrs to achieve cGAS-STING activation. Cells were treated with ODN 2088 (1 μM) for 1 hr prior to LPS stimulation or transfection with CPG ODN 1826 (1.5 μg/ml) to achieve TLR9 activation. 3 different timepoints of 4-hydroxy tamoxifen (TAM) (600 nM or 2 μM) or EtOH treatment were performed-these are specified in the individual figure legends. For ‘48 h’ treatments EtOH/TAM was added on day 5 of 6 during the BMDM differentiation protocol. On day 6 they were plated with EtOH/TAM (left overnight) and treated the following day. […]

[2] = tested on: BMDMs; assay: ELISA of cytokine release from BMDMs; assay type: cell-based, mouse; conditions: for IL-6 release / IL-10 release / TNF-α release: BMDMs pre-treated 3 h
Description: (§1) All compounds used DMSO as a vehicle except for 4-hydroxy tamoxifen (EtOH), NAC (PBS), and AOAA for tracing experiments (Media). LPS was used at a concentration of 100 ng/ml for indicated timepoints (2, 3, 4, 6, 8, 24, 48 h). FHIN1 (10 or 20 μM), MMF (50 or 100 μM), DMF (25 μM), AOAA (5 mM), oligomycin (10 μM), CCCP (50 μM) NAC (1 mM), and IMT1 (10 μM) pre-treatments were performed for 3 h prior the addition of LPS. Cells were treated with valinomycin (10 nM) 15 mins before LPS stimulation. Anti-CD210 or IgG control (10 μg/ml) antibodies were added to cells 1 h prior to LPS stimulation. Recombinant mouse IL-10 protein (100 ng/ml) was added to cells at the same time as LPS. Cells were treated with IFN-B1 (220 ng/ml) for 3 h. Cells were treated with C-178 (1 μM) 1 h prior to LPS stimulation or transfection with 2′3′-cGAMP (1.5 μg/ml) for 4 hrs to achieve cGAS-STING activation. Cells were treated with ODN 2088 (1 μM) for 1 hr prior to LPS stimulation or transfection with CPG ODN 1826 (1.5 μg/ml) to achieve TLR9 activation. 3 different timepoints of 4-hydroxy tamoxifen (TAM) (600 nM or 2 μM) or EtOH treatment were performed-these are specified in the individual figure legends. For ‘48 h’ treatments EtOH/TAM was added on day 5 of 6 during the BMDM differentiation protocol. On day 6 they were plated with EtOH/TAM (left overnight) and treated the following day. For ‘72 h’ treatments EtOH/TAM was added on day […] of 6 during the BMDM differentiation protocol. On day 6 they were plated with EtOH/TAM (left overnight) and treated the following day. For ‘96 h’ treatments EtOH/TAM was added on day […] of 6 during the BMDM differentiation protocol. On day 6 they were plated with EtOH/TAM and treated 2 days later.
(§2) Pre-designed silencer select siRNAs for Cgas (s103166), Tmem173 (s91058), Tlr3 (s100579), Tlr9 (s96268), As/(s99640), Tlr7 (s100720), Ddx58 (s106376), Ifih1 (s89787), Nrf2 (s70522), Atf4 (s62689) and negative control (4390843) were ordered from Thermo Fisher. siRNA sequences are given in Table S2. Cells were transfected with 50 nM siRNA using 5 μl lipofectamine RNAiMAX according to manufacturer's instructions (Thermo Fisher). Cells were transfected in medium without serum and antibiotics which was replaced with complete medium 8 hours later. Cells were subsequently left for at least a further 12 hours prior to treatment.
BMDMs were plated in the presence or absence of ultrapure ethidium bromide (100 ng/ml) and incubated for a further 6 days prior to treatment. Depletion of mtDNA was determined by genomic DNA isolation followed by qPCR using primers specific for areas of mitochondrial DNA (D-loop) and areas of mtDNA that are not inserted into nuclear DNA (Non-NUMT).
DuoSet ELISA kits for IL-1β, TNFα, IL-6, IL-10, and GDF15 were purchased from R&D Systems and were carried out according to the manufacturer's instructions with appropriately diluted cell supernatants added to each plate in duplicate or triplicate. IFN-β was determined using DuoSet ELISA kit from R&D Systems or Abcam (ab252363). Quantikine ELISA kit for IFN-β (R&D Systems) was used for determination of IFN-β concentration in serum samples and from human cells, and these were also carried out according to the manufacturer's instructions. Absorbance at 450 nm was quantified using a FLUOstar Optima plate reader. Corrected absorbance values were calculated by subtracting the background absorbance, and cytokine concentrations were subsequently obtained by extrapolation from a standard curve plotted on GraphPad Prism 9.2.0.

[3] = tested on: BMDMs; assay: RT-qPCR gene expression in BMDMs; assay type: cell-based, mouse; conditions: for IL-1β expression / Il10 expression / Tnfa expression: BMDMs pre-treated 3 h; for Ifnb1 expression following Nrf2 silencing: Nrf2 siRNA
Description: as §1
RNA extraction from cells was carried out using a Purelink™ RNA kit (Invitrogen) according to the manufacturer's instructions. BMDMs were treated as required, and following treatment were instantly lysed in 350 μl RNA lysis buffer. Isolated RNA was quantified using a NanoDrop 2000 spectrophotometer, and RNA concentration was normalised to the lowest concentration across all samples with RNAse-free water. If necessary, samples were DNAse-treated after quantification using DNAse I (Thermo Fisher) according to the manufacturer's instructions. Isolated RNA samples were normalised and converted into cDNA using the High-Capacity cDNA Reverse Transcription Kit (Thermo Fisher) according to manufacturer's instructions. 10 μl of RNA (at a maximum concentration of 100 ng/μl) was added to 10 μl of reverse transcription master mix to complete the reaction mixture. Real-time quantitative PCR was performed on the cDNA generated in the previous step, using primers designed in-house and ordered from Eurofins Genomics, as detailed in Table S2. The reaction was performed in a 96-well qPCR plate by a 7500 Fast Real-Time PCR machine (Thermo Fisher). Relative expression (2^−ΔΔCT) was calculated from the CT values for each sample and gene of interest.
as §2

[4] = target: T1, c-Fos (Mus musculus, UniProt P01101); assay: c-Fos activity assay (AP1 transcription factor assay on nuclear extracts); assay type: cell-based; conditions: BMDMs pre-treated 3 h, LPS 4 h
T1 construct: nuclear extracts were isolated using a Nuclear Extraction Kit; endogenous in cells; host or cells: mouse bone-marrow-derived macrophages (BMDMs), nuclear extract
T1 sequence (P01101 whole entry): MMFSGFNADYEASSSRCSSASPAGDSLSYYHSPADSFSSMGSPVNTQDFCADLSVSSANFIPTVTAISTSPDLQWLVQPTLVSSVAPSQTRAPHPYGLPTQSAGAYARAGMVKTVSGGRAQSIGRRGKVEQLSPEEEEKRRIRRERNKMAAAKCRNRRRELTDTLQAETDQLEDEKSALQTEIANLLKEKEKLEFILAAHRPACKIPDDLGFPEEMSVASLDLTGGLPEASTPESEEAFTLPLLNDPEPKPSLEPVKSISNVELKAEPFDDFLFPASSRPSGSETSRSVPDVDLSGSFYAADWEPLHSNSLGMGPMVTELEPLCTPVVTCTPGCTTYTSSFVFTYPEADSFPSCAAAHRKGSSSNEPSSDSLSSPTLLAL
T1 sequence (P05627 whole entry partner): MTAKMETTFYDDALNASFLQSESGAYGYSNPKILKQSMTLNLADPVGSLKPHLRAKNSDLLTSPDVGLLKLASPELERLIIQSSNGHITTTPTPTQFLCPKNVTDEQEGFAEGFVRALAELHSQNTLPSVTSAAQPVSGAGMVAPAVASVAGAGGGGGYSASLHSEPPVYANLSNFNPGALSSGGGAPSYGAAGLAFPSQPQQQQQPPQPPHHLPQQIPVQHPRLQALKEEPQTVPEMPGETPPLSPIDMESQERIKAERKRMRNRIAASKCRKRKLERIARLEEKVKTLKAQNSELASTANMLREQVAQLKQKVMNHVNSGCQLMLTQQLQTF
Description: BMDMs from 3 mice were plated in 10 cm dishes at 0.5×10^6 cells/mL and left overnight. Cells were pre-treated with FHIN1 or DMF (3 h) prior to LPS stimulation (4 h). Upon harvesting, nuclear extracts were isolated using a Nuclear Extraction Kit (ab113474) purchased from Abcam. Nuclear extracts were quantified via BCA assay and standardised. c-Fos relative activity was then quantified using the AP1 transcription factor assay purchased from Abcam (Ab207196) according to the manufacturers protocol.

For `CCOC(=O)[C@@]12CCCC=C1N(Cc1ccc(-c3ccccc3)cc1)C(=O)[C@H]2CC(=O)NC` [FHIN1, Fumarate hydratase-IN-1], the “basal respiration, ATP production and maximal respiration as measured by OCR” value [1] was “impaired”, the IL-6 release ([2]; LPS 4 h) was “reduced” and the IL-10 release ([2]; LPS 4 h) was “decreased”. The TNF-α release ([2]; LPS 4 h) was “increased”, the GDF15 release ([2]; BMDMs pre-treated, LPS 4 h) was “drove GDF15 release” and the “LPS-induced IFN-β release” value ([2]; BMDMs pre-treated, LPS 4 h) was “increase”. For the same compound, the TNF-α production ([2]; BMDMs pre-treated, co-treated with recombinant IL-10 100 ng/ml, LPS 4 h) was “failed to impair STAT3 phosphorylation or augment TNF-α production”, the “LPS-induced IFN-β release in the presence of EtBr” value ([2]; BMDMs treated with EtBr 100 ng/ml 6 days (mtDNA depletion), then FHIN1, LPS 4 h) was “no longer boosted” and the “augmentation in IFN-β release with knockdown of Tlr3” value ([2]; BMDMs, siRNA 50 nM, LPS 4 h) was “did not affect”. The “boost in IFN-β release with silencing of Tlr7, Ddx58 (RIG-I) or Ifih1 (MDA5)” value ([2]; BMDMs, siRNA 50 nM, LPS 4 h) was “abrogated”, the IL-1β expression ([3]; LPS 4 h) was “reduced” and the Il10 expression ([3]; LPS 4 h) was “decreased”. For the same compound, the Tnfa expression ([3]; LPS 4 h) was “increased”, the Ddx58 expression ([3]; BMDMs pre-treated, LPS 4 h) was “reduced” and the Tmem173 expression ([3]; BMDMs pre-treated, LPS 4 h) was “Suppression”. The “Ifnb1 expression following Nrf2 silencing” value ([3]; BMDMs, LPS 4 h) was “increased”, the “dependence of the FHIN1 IFN-β increase on NAC-sensitive redox stress (Ifnb1 expression)” value ([3]; BMDMs, in the presence of NAC, LPS 4 h) was “independent of NAC-sensitive redox stress” and the “dependence of FHIN1-driven GDF15 on NRF2 and ATF4” value ([3]; BMDMs, silencing of Nrf2 or Atf4, LPS 4 h) was “partly NRF2-but not ATF4-dependent”. The “induction of IFN-β (Ifnb1) in MAVS knockout BMDMs” value ([3]; WT and Mavs−/− BMDMs, LPS 4 h) was “did not impair” and the c-Fos activation [4] was “strongly impaired”.
With `COC(=O)/C=C/C(=O)OC` [DMF, dimethyl fumarate] the “basal respiration, ATP production and maximal respiration as measured by OCR” value [1] was “no effect”, the IL-6 release ([2]; LPS 4 h) was “reduced” and the IL-10 release ([2]; LPS 4 h) was “decreased”. For the same compound, the TNF-α release ([2]; LPS 4 h) was “increased”, the IL-1β expression ([3]; LPS 4 h) was “reduced” and the Il10 expression ([3]; LPS 4 h) was “decreased”. For the same compound, the Tnfa expression ([3]; LPS 4 h) was “increased”, the Tmem173 expression ([3]; BMDMs pre-treated, LPS 4 h) was “Suppression” and the “Ifnb1 expression following Nrf2 silencing” value ([3]; BMDMs, LPS 4 h) was “increased”. For the same compound, the c-Fos activation [4] was “strongly impaired”.

Reference: US20250018019A1, “TREATMENT OF INTERFERON DRIVEN INFLAMMATION” (The Provost, Fellows, Foundation Scholars and the other …, priority 2023, published 2025)
